EC50 data for 17 compounds are collected here from patent publication US9499550B2 (BRISTOL-MYERS SQUIBB COMPANY, priority 2012, dated 2016).

Read-outs that look alike come from different tables or passages of the source.

Test [1] deals with HCV genotype 1a (H77 strain) replicon in HUH-7 cells. Nature of the test: HCV replicon luciferase reporter assay, genotype 1a. The test is classed as cell-based. Conditions: Hepatitis C virus, Huh-7, 72 h, HCV genotype 1a replicon luciferase, 3 days incubation, read-out: LE_1a (EC50, range). A digest of the protocol: (§1)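 Replicon inhibition for both genotypes was measured as Renilla luciferase signal (EnduRen, 7.5 μM final, 2 h) after 3-day, 37° C exposure of replicon-bearing HUH-7 cells in 4% FCS DMEM, 0.5% DMSO. The 1b construct carries S1179I; the 1a H77 construct carries P1496L and S2204I. Twenty-point, 3-fold dilutions were fitted four-parametrically for EC50, and CC50 was taken from multiplexed Cell Titer-Blue.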
A general note: In antiviral work, replicon cells carry a viral genome segment that copies itself.

Test [2] relates to HCV genotype 1b (Con1) replicon in HUH-7 cells. In words: HCV replicon luciferase reporter assay, genotype 1b. The format is cell-based. Conditions: Hepatitis C virus, Huh-7, 72 h, HCV genotype 1b replicon luciferase, 3 days incubation, read-out: LE_1b (EC50, range). A digest of the protocol:
as §1

One may read the EC50 as the concentration that produces a half-maximal response. `COc1cc2c(OC)cnc(O[C@@H]3C[C@H]4C(=O)N[C@]5(C(=O)NS(=O)(=O)C6(CF)CC6)C[C@H]5/C=C\CC[C@@H](C)C[C@@H](C)[C@H](NC(=O)C(C)(C)C)C(=O)N4C3)c2cc1F` [Compound 4116, (2R,6S,7R,9R,13aS,14aR,16aS,Z)-2-(7-fluoro-4,6-dimethoxyisoquinolin-1-yloxy)-N-(1-(fluoromethyl)cyclopropylsulfonyl)-7,9-dimethyl-5,16-dioxo-6-pivalamido-1,2,3,5,6,7,8,9,10,11,13a,14,14a,15,16,16a-hexadecahydrocyclopropa[e]pyrrolo[1,2-a][1,4]diazacyclopentadecine-14a-carboxamide]: the EC50 in test [1] and in test [2] was under 5.46 nM each time.

Turning to `COc1cc2c(OC)cnc(O[C@@H]3C[C@H]4C(=O)N[C@]5(C(=O)NS(=O)(=O)C6(CF)CC6)C[C@H]5/C=C\CC[C@@H](C)C[C@@H](C)[C@H](NC(=O)c5c(F)cc(F)cc5F)C(=O)N4C3)c2cc1F` [Compound 4117, (2R,6S,7R,9R,13aS,14aR,16aS,Z)-2-(7-fluoro-4,6-dimethoxyisoquinolin-1-yloxy)-N-(1-(fluoromethyl)cyclopropylsulfonyl)-7,9-dimethyl-5,16-dioxo-6-(2,4,6-trifluorobenzamido)-1,2,3,5,6,7,8,9,10,11,13a,14,14a,15,16,16a-hexadecahydrocyclopropa[e]pyrrolo[1,2-a][1,4]diazacyclopentadecine-14a-carboxamide], the half-maximal effective concentration (EC50) in test [1] and in test [2] was under 5.46 nM each time.

Consider `COc1cc2c(OC)cnc(O[C@@H]3C[C@H]4C(=O)N[C@]5(C(=O)NS(=O)(=O)C6(CF)CC6)C[C@H]5/C=C\CC[C@@H](C)C[C@@H](C)[C@H](NC(=O)c5ccc(F)cc5F)C(=O)N4C3)c2cc1F` [Compound 4118, (2R,6S,7R,9R,13aS,14aR,16aS,Z)-6-(2,4-difluorobenzamido)-2-(7-fluoro-4,6-dimethoxyisoquinolin-1-yloxy)-N-(1-(fluoromethyl)cyclopropylsulfonyl)-7,9-dimethyl-5,16-dioxo-1,2,3,5,6,7,8,9,10,11,13a,14,14a,15,16,16a-hexadecahydrocyclopropa[e]pyrrolo[1,2-a][1,4]diazacyclopentadecine-14a-carboxamide], for which the concentration giving a half-maximal response (EC50) in test [1] and in test [2] was under 5.46 nM in each case.

In the case of `COc1cc2c(OC)cnc(O[C@@H]3C[C@H]4C(=O)N[C@]5(C(=O)NS(=O)(=O)C6(CF)CC6)C[C@H]5/C=C\CC[C@@H](C)C[C@@H](C)[C@H](NC(=O)C5(C(F)(F)F)CC5)C(=O)N4C3)c2cc1F` [Compound 4119, (2R,6S,7R,9R,13aS,14aR,16aS,Z)-2-(7-fluoro-4,6-dimethoxyisoquinolin-1-yloxy)-N-(1-(fluoromethyl)cyclopropylsulfonyl)-7,9-dimethyl-5,16-dioxo-6-(1-(trifluoromethyl)cyclopropanecarboxamido)-1,2,3,5,6,7,8,9,10,11,13a,14,14a,15,16,16a-hexadecahydrocyclopropa[e]pyrrolo[1,2-a][1,4]diazacyclopentadecine-14a-carboxamide], the EC50 in test [1] and in test [2] was under 5.46 nM each time.

As for `COc1ccc2c(O[C@@H]3C[C@H]4C(=O)N[C@]5(C(=O)NS(=O)(=O)C6(CF)CC6)C[C@H]5/C=C\CC[C@@H](C)C[C@@H](C)[C@H](NC(=O)OC(C)(C)C(F)(F)F)C(=O)N4C3)ncc(N3CCOCC3)c2c1` [Compound 4120], the EC50 in test [1] and in test [2] was under 5.46 nM each time.

Regarding `COc1cc2c(OC)cnc(O[C@@H]3C[C@H]4C(=O)N[C@]5(C(=O)NS(=O)(=O)C6(CO)CC6)C[C@H]5/C=C\CC[C@@H](C)C[C@@H](C)[C@H](NC(=O)OC(C)(C)C)C(=O)N4C3)c2cc1F` [Compound 4122, tert-butyl (2R,6S,7R,9R,13aS,14aR,16aS,Z)-2-(7-fluoro-4,6-dimethoxyisoquinolin-1-yloxy)-14a-(1-(hydroxymethyl)cyclopropylsulfonylcarbamoyl)-7,9-dimethyl-5,16-dioxo-1,2,3,5,6,7,8,9,10,11,13a,14,14a,15,16,16a-hexadecahydrocyclopropa[e]pyrrolo[1,2-a][1,4]diazacyclopentadecin-6-ylcarbamate], the EC50 in test [1] and in test [2] was under 5.46 nM each time.

`COc1cc2c(OC)cnc(O[C@@H]3C[C@H]4C(=O)N[C@]5(C(=O)NS(=O)(=O)C6(CO)CC6)C[C@H]5/C=C\CC[C@H](C)C[C@@H](C)[C@H](NC(=O)OC(C)(C)C)C(=O)N4C3)c2cc1F` [Compound 4123, tert-butyl (2R,6S,7R,9S,13aS,14aR,16aS,Z)-2-(7-fluoro-4,6-dimethoxyisoquinolin-1-yloxy)-14a-(1-(hydroxymethyl)cyclopropylsulfonylcarbamoyl)-7,9-dimethyl-5,16-dioxo-1,2,3,5,6,7,8,9,10,11,13a,14,14a,15,16,16a-hexadecahydrocyclopropa[e]pyrrolo[1,2-a][1,4]diazacyclopentadecin-6-ylcarbamate]: the EC50 in test [1] and in test [2] was 4.82 to 103 nM throughout.

For the compound `COc1ccc2c(O[C@@H]3C[C@H]4C(=O)N[C@]5(C(=O)NS(=O)(=O)C6(Cl)CC6)C[C@H]5/C=C\CC[C@@H](C)C[C@@H](C)[C@H](NC(=O)OC(C)(C)C(F)(F)F)C(=O)N4C3)ncc(OC)c2c1` [Compound 4124], the EC50 in test [1] (GETYPE1A) and in test [2] (GETYPE1B) was under 5.46 nM in each case.

With `COc1ccc2c(O[C@@H]3C[C@H]4C(=O)N[C@]5(C(=O)NS(=O)(=O)C6(Cl)CC6)C[C@H]5/C=C\CC[C@@H](C)C[C@@H](C)[C@H](NC(=O)OC(C)(C)C)C(=O)N4C3)ncc(OC)c2c1` [Compound 4125, tert-butyl (2R,6S,7R,9R,13aS,14aR,16aS,Z)-14a-(1-chlorocyclopropylsulfonylcarbamoyl)-2-(4,6-dimethoxyisoquinolin-1-yloxy)-7,9-dimethyl-5,16-dioxo-1,2,3,5,6,7,8,9,10,11,13a,14,14a,15,16,16a-hexadecahydrocyclopropa[e]pyrrolo[1,2-a][1,4]diazacyclopentadecin-6-ylcarbamate], the EC50 in test [1] and in test [2] was under 5.46 nM each time.

Turning to `CCC1(S(=O)(=O)NC(=O)[C@@]23C[C@H]2/C=C\CC[C@H](C)C[C@@H](C)[C@H](NC(=O)OC(C)(C)C(F)(F)F)C(=O)N2C[C@H](Oc4nccc5cc(OC)c(F)cc45)C[C@H]2C(=O)N3)CC1` [Compound 4126], the concentration giving a half-maximal response (EC50) in test [1] (GETYPE1A) and in test [2] (GETYPE1B) was under 5.46 nM in each case.

Consider `CCC1(S(=O)(=O)NC(=O)[C@@]23C[C@H]2/C=C\CC[C@@H](C)C[C@@H](C)[C@H](NC(=O)OC(C)(C)C(F)(F)F)C(=O)N2C[C@H](Oc4nccc5cc(OC)c(F)cc45)C[C@H]2C(=O)N3)CC1` [Compound 4127], for which the EC50 is 4.82 to 103 nM in test [1] (GETYPE1A) and under 5.46 nM in test [2] (GETYPE1B).

For the compound `COc1ccc2c(O[C@@H]3C[C@H]4C(=O)N[C@]5(C(=O)NS(=O)(=O)C6(CF)CC6)C[C@H]5/C=C\CC[C@@H](C)C[C@@H](C)[C@H](NC(=O)OC(C)(C)C(F)(F)F)C(=O)N4C3)nc(-c3ccc(OC(C)C)cc3)cc2c1` [Compound 4128], the 50% effective concentration (EC50) in test [1] (GETYPE1A) and in test [2] (GETYPE1B) was under 5.46 nM each time.

Take `COc1cnc(O[C@@H]2C[C@H]3C(=O)N[C@]4(C(=O)NS(=O)(=O)C5(CF)CC5)C[C@H]4/C=C\CC[C@@H](C)C[C@@H](C)[C@H](NC(=O)OC(C)(C)C(F)(F)F)C(=O)N3C2)c2cccc(Cl)c12` [Compound 4129]: the concentration for a half-maximal effect (EC50) in test [1] (GETYPE1A) and in test [2] (GETYPE1B) was under 5.46 nM each time.

As to `C[C@@H]1CC/C=C\[C@@H]2C[C@@]2(C(=O)NS(=O)(=O)C2(CF)CC2)NC(=O)[C@@H]2C[C@@H](Oc3cnc4ccccc4n3)CN2C(=O)[C@@H](NC(=O)OC(C)(C)C)[C@H](C)C1` [Compound 4130, tert-butyl (2R,6S,7R,9R,13aS,14aR,16aS,Z)-14a-(1-(fluoromethyl)cyclopropylsulfonylcarbamoyl)-7,9-dimethyl-5,16-dioxo-2-(quinoxalin-2-yloxy)-1,2,3,5,6,7,8,9,10,11,13a,14,14a,15,16,16a-hexadecahydrocyclopropa[e]pyrrolo[1,2-a][1,4]diazacyclopentadecin-6-ylcarbamate], the EC50 in test [1] and in test [2] was 4.82 to 103 nM throughout.

As to `COc1ccc2c(O[C@@H]3C[C@H]4C(=O)N[C@]5(C(=O)NS(=O)(=O)C6(C)CC6)C[C@H]5/C=C\CC[C@@H](C)C[C@@H](C)[C@H](NC(=O)OC(C)(C)C)C(=O)N4C3)ncc(N3C[C@@H](C)O[C@@H](C)C3)c2c1` [Compound 4131, tert-butyl (2R,6S,7R,9R,13aS,14aR,16aS,Z)-2-(4-((2S,6R)-2,6-dimethylmorpholino)-6-methoxyisoquinolin-1-yloxy)-7,9-dimethyl-14a-(1-methylcyclopropylsulfonylcarbamoyl)-5,16-dioxo-1,2,3,5,6,7,8,9,10,11,13a,14,14a,15,16,16a-hexadecahydrocyclopropa[e]pyrrolo[1,2-a][1,4]diazacyclopentadecin-6-ylcarbamate], the concentration giving a half-maximal response (EC50) in test [1] and in test [2] was under 5.46 nM throughout.

Regarding `COc1ccc2c(O[C@@H]3C[C@H]4C(=O)N[C@]5(C(=O)NS(=O)(=O)C6(C)CC6)C[C@H]5/C=C\CC[C@@H](C)C[C@@H](C)[C@H](NC(=O)OC(C)(C)C(F)(F)F)C(=O)N4C3)ncc(N3C[C@@H](C)O[C@@H](C)C3)c2c1` [Compound 4132], the concentration giving a half-maximal response (EC50) in test [1] (GETYPE1A) and in test [2] (GETYPE1B) was under 5.46 nM throughout.

Take `C[C@@H]1CC/C=C\[C@@H]2C[C@@]2(C(=O)NS(=O)(=O)C2(C)CC2)NC(=O)[C@@H]2C[C@@H](Oc3ncc(OC(=O)OC(C)(C)C(F)(F)F)c4ccccc34)CN2C(=O)[C@@H](NC(=O)OC(C)(C)C(F)(F)F)[C@H](C)C1` [Compound 4133]: the concentration giving a half-maximal response (EC50) in test [1] (GETYPE1A) is 4.82 to 103 nM; in test [2] (GETYPE1B), under 5.46 nM.
